Patent publication US20250059164A1, “IRAK DEGRADERS AND USES THEREOF” (Kymera Therapeutics, Inc., priority 2023, published 2025)

Key:
IRAK4 = biological target: T1, IRAK4 (Homo sapiens, UniProt Q9NWZ3); assay: IRAK4 MSD degradation in OCI-LY10; assay type: cell-based; details: OCI-LY10 cells, 24 hrs, Meso Scale Discovery
T1 construct: endogenous in cells; host or cells: OCI-LY10
T1 sequence (Q9NWZ3 1-460): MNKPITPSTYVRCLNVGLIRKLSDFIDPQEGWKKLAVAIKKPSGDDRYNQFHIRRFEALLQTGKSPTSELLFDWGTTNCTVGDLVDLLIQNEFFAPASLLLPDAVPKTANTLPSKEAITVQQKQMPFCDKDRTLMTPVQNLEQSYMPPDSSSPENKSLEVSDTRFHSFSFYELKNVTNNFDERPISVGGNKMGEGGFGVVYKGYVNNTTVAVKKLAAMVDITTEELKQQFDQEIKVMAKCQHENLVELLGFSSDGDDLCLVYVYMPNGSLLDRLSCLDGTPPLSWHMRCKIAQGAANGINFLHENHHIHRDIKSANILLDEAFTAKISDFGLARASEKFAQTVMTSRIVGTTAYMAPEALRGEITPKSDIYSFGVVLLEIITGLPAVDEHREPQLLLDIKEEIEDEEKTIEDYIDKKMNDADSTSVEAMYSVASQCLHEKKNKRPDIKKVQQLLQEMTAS
Procedure, shortened: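 Remaining IRAK4 protein measured by Meso Scale Discovery electrochemiluminescence sandwich assay on lysates of OCI-LY10 cells. Cells were exposed for 4 to 24 hours (37° C., 5% CO2) to eight 1:3-diluted concentrations starting at 1 to 10 μM. DC50 derived by three-parameter logistic fitting.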

[1] = Rodent pharmacokinetics (rat PK); assay type: in vivo; details: po, dosed intravenously or orally by gavage, plasma, read-out: F % (bioavailability)
Procedure, shortened: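 F % is reported as a letter code: A for ≥5%, B for ≤5%. It was derived from rat plasma profiles after intravenous or oral gavage dosing, with jugular vein sampling from predose to 24 h (5 min point for IV only).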

| DC50 (IRAK4) | bioavailability [1] | SMILES |
| --- | --- | --- |
| < 10 nM | ≤ 5% | Cn1c(=O)n(C2CCC(=O)NC2=O)c2cccc([C@@H]3CCN(C[C@H]4CC[C@H](n5cc6cc(NC(=O)c7cncc(C(F)(F)F)n7)c(S(C)(=O)=O)cc6n5)CC4)C[C@H]3F)c21 (stereo partly drawn) [I-346] |
| < 10 nM | ≤ 5% | COc1cc2nn([C@H]3CC[C@H](CN4CC[C@@H](c5cccc6c5n(C)c(=O)n6C5CCC(=O)NC5=O)[C@H](F)C4)CC3)cc2cc1C(=O)Nc1cncc(C(F)(F)F)c1 (stereo partly drawn) [I-283] |
| < 10 nM | ≥ 5% | O=C1CCC(c2ccc(N3CC(N4CCN([C@H]5CC[C@H](n6cc(NC(=O)c7cnn8ccc(N9C[C@H]%10C[C@@H]9CO%10)nc78)c(C(F)F)n6)CC5)CC4)C3)cc2Cl)C(=O)N1 (single isomer, unassigned) [I-46] |
| < 10 nM | ≤ 5% | Cn1c(=O)n(C2CCC(=O)NC2=O)c2cccc([C@@H]3CCN(C[C@H]4CC[C@H](c5cn6cc(NC(=O)c7cccc(C(F)(F)F)n7)ccc6n5)CC4)C[C@H]3F)c21 (stereo partly drawn) [I-262] |
| > 200 nM | ≤ 5% | Cn1cc(Cl)c(C(=O)Nc2ccc3nn([C@H]4CC[C@H](CN5CC[C@@H](c6cccc7c6n(C)c(=O)n7C6CCC(=O)NC6=O)[C@H](F)C5)CC4)cc3c2)n1 (stereo partly drawn) [I-155] |
| < 10 nM | ≥ 5% | CN(C[C@H]1CC[C@H](c2nc3cc(C(C)(C)O)c(NC(=O)c4cncc(C(F)(F)F)c4)cc3s2)CC1)[C@@H]1CCN(c2cccc3c2n(C)c(=O)n3C2CCC(=O)NC2=O)C[C@@H]1F (single isomer, unassigned) [I-161] |
| < 10 nM | ≥ 5% | CN(C[C@H]1CC[C@H](n2cc(NC(=O)c3cnn4ccc(N5C[C@H]6C[C@@H]5CO6)nc34)c(C(F)F)n2)CC1)[C@H]1CCN(c2cccc3c2n(C)c(=O)n3C2CCC(=O)NC2=O)C[C@@H]1F (single isomer, unassigned) [I-28] |
| > 200 nM | ≤ 5% | Cn1c(=O)n(C2CCC(=O)NC2=O)c2cccc(CCCOC[C@H]3CC[C@H](n4cc(NC(=O)c5cnn6ccc(N7C[C@H]8C[C@@H]7CO8)nc56)c(C(F)F)n4)CC3)c21 (stereo partly drawn) [I-109] |
| < 10 nM | ≤ 5% | Cc1cncc(C(=O)Nc2ccc3nn([C@H]4CC[C@H](CN5CC[C@@H](c6cccc7c6n(C)c(=O)n7C6CCC(=O)NC6=O)[C@H](F)C5)CC4)cc3c2)n1 (stereo partly drawn) [I-307] |
| > 200 nM | ≥ 5% | COc1cc(C(=O)Nc2ccc3nn([C@H]4CC[C@H](CN5CC[C@@H](c6cccc7c6n(C)c(=O)n7C6CCC(=O)NC6=O)[C@H](F)C5)CC4)cc3c2)nc(C(F)(F)F)c1 (stereo partly drawn) [I-394] |
| < 10 nM | ≥ 5% | Cn1c(=O)n(C2CCC(=O)NC2=O)c2cccc([C@@H]3CCN(C[C@H]4CC[C@H](c5nc6cc(C(C)(C)O)c(NC(=O)c7cccc(C(F)(F)F)n7)cc6o5)CC4)C[C@H]3F)c21 (stereo partly drawn) [I-167] |
| < 10 nM | ≤ 5% | Cn1c(=O)n(C2CCC(=O)NC2=O)c2cccc([C@@H]3CCN(C[C@H]4CC[C@H](n5cc6cc(NC(=O)c7csc(C(F)(F)F)n7)ccc6n5)CC4)C[C@H]3F)c21 (stereo partly drawn) [I-149] |
| < 10 nM | ≤ 5% | Cn1c(=O)n(C2CCC(=O)NC2=O)c2cccc([C@@H]3CCN(C[C@H]4CC[C@H](n5cc6cc(NC(=O)c7nc(C(F)(F)F)cs7)ccc6n5)CC4)C[C@H]3F)c21 (stereo partly drawn) [I-154] |
| < 10 nM | ≤ 5% | Cn1c(=O)n(C2CCC(=O)NC2=O)c2ccc(F)c([C@H]3CCN(C[C@H]4CC[C@H](n5cc6cc(NC(=O)c7cncc(C#N)c7)c(C(C)(C)O)cc6n5)CC4)CC3(F)F)c21 (single isomer, unassigned) [I-383] |
| < 10 nM | ≥ 5% | Cn1nc(C2CCC(=O)NC2=O)c2cccc([C@@H]3CCN(C[C@H]4CC[C@H](n5cc6cc(NC(=O)c7cncc(C#N)c7)c(C(C)(C)O)cc6n5)CC4)CC3(F)F)c21 (single isomer, unassigned) [I-222] |
| < 10 nM | ≥ 5% | Cn1nc(C2CCC(=O)NC2=O)c2cccc([C@@H]3CCN(C[C@H]4CC[C@H](n5cc6cc(NC(=O)c7cncc(C(F)(F)F)n7)ncc6n5)CC4)C[C@H]3F)c21 (single isomer, unassigned) [I-370] |
| < 10 nM | ≥ 5% | COc1ccc2c(c1[C@@H]1CCN(C[C@H]3CC[C@H](n4cc5cc(NC(=O)c6cncc(C(F)(F)F)n6)ccc5n4)CC3)C[C@H]1F)n(C)c(=O)n2C1CCC(=O)NC1=O (stereo partly drawn) [I-347] |
| < 10 nM | ≤ 5% | COc1cc2nc([C@H]3CC[C@H](CN4CC[C@@H](c5cccc6c5n(C)c(=O)n6C5CCC(=O)NC5=O)[C@H](F)C4)CC3)cn2cc1NC(=O)c1cccc(C(F)(F)F)c1 (stereo partly drawn) [I-278] |
| < 10 nM | ≤ 5% | COc1cc2nc([C@H]3CC[C@H](CN4CC[C@@H](c5cccc6c5n(C)c(=O)n6C5CCC(=O)NC5=O)[C@H](F)C4)CC3)cn2cc1NC(=O)c1cncc(C(F)(F)F)n1 (stereo partly drawn) [I-308] |
| < 10 nM | ≥ 5% | CN(C[C@H]1CC[C@H](c2nc3cc(C(C)(C)O)c(NC(=O)c4cncc(C(F)(F)F)c4)cc3s2)CC1)[C@H]1CCN(c2cccc3c2n(C)c(=O)n3C2CCC(=O)NC2=O)C[C@H]1F (single isomer, unassigned) [I-162] |
| > 200 nM | ≥ 5% | Cn1c(=O)n(C2CCC(=O)NC2=O)c2cccc(N3CC4(CCN(C[C@H]5CC[C@H](c6nc7cc(C(C)(C)O)c(NC(=O)c8cccc(C(F)(F)F)n8)cc7o6)CC5)CC4(F)F)C3)c21 (stereo partly drawn) [I-411] |
